# From article PMC5712521, “Dendrogenin A drives LXR to trigger lethal autophagy in cancers” (Nature Communications, 2017)
# Columns and labels:
# HL60 cells = assay: Immunoblot densitometry; assay type: cell-based, human; conditions: 5 µM DDA, 24 h
# Experimental: Immunoblotting was carried out as described previously. Proteins were separated on SDS-PAGE gels, electro-transferred onto polyvinylidene difluoride membranes and incubated overnight at 4 °C with the following antibodies: anti-Atg3, anti-Atg5 (D1G9), anti-Atg7 (D12B11), anti-Beclin (D40C5), anti-caspase-3 (Cell Signaling), anti-Bcl-2 (Millipore), anti-Bax (Millipore), anti-LC3 (Sigma-Aldrich), anti-LXRα (SantaCruz), anti-LXRβ (SantaCruz), anti-Nur77 (Active motif), anti-NOR1 (R&D systems), anti-PARP (Cell Signaling), anti-Vps34 (Cell Signaling), or anti-Actin (Millipore). For visualization, an ECL plus kit (Amersham Biosciences) was used, and chemiluminescence was measured by autoradiography (Supplementary Fig. 9). Specific bands were quantified with ImageQuant software. […]
# (n=16- 20 mice/group) engrafted with KG1 cells or HL60 cells were treated with DDA (20 mg/kg/day, i.p.) or solvent vehicle (control). Tumor growth was monitored over time and was analyzed for significance using repeated measures ANOVA (***P<0.001). The mean tumor volumes ± SEM are shown. e Average tumor weight at the end of the experiments in d. *P<0.5, **P<0.01, ANOVA. f Mean tumor volumes measured at the end of the experiments for HL60 and KG1 graf ted into NOD/SCID or NMRI-Fo x1 -nude mice treated with DDA (40 mg/kg/day, p.o. or 20 mg/kg/day, i.p.) or solvent vehicle (control) (n=10- 20 mice per group). […]
# [1] = molecular target: T1, human liver-X-receptor LXRβ (Homo sapiens, UniProt P55055); assay: LXRE-luciferase gene reporter assay in HEK293T, LXRβ; assay type: cell-based; conditions: LXRβ; 10 µM 22(R)HC; read-out: IC50, inhibition of LXR-dependent luciferase activity stimulated by 22(R)HC
# T1 construct: expressed in transfected cells; host or cells: HEK293T
# T1 sequence (P55055 whole entry): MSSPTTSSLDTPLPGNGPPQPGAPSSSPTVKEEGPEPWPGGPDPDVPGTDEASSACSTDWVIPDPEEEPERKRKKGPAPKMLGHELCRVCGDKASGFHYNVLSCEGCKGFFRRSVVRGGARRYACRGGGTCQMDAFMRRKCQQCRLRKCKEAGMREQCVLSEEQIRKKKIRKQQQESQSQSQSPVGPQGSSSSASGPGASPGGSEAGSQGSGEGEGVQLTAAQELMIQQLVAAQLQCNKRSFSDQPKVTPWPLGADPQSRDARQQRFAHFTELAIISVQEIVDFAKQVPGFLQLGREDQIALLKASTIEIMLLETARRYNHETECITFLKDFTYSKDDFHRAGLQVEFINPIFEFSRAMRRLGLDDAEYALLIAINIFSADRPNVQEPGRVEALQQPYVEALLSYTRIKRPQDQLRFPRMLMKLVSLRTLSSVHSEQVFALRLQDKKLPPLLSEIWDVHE
# T1 sequence (P48443 whole entry partner): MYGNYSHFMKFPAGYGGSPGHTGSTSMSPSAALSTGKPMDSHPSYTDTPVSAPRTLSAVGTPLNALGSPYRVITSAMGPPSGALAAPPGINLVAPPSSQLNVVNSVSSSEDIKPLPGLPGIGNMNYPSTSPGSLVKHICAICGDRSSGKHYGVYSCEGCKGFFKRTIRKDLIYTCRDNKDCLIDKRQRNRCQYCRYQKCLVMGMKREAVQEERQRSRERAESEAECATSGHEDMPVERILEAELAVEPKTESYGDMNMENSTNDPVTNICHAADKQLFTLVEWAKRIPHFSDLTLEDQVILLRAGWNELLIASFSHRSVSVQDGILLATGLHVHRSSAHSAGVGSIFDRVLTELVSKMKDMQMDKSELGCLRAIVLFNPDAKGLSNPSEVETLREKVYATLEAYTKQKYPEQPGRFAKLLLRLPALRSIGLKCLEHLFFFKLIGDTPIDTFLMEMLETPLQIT
# Description: HEK293T were used for luciferase assays. Cells were transfected using the PolyEthylenImine (PEI) method with human retinoid-X receptor (RXRγ) and human liver-X-receptors (LXRα or LXRβ) with LXRE-Luc; RXRγ and human farnesoid X receptor (FXR) with EcRE-Luc; RXRγ and human steroid and xenobiotic X receptor (SXR) with DR4-Luc; RXRγ and human peroxisome proliferator activated receptors (PPARα, or PPARγ) with PPRE-Luc; RXRγ and human retinoic acid receptor (RARα) with DR1-Luc; human AHR and human ARNT with a DRE-Luc; human vitamin D receptor (VDR) with VDRE-Luc. Cells were transfected with plasmids encoding human glucocorticoid receptor (GR), progesterone receptor (PR), or androgen receptor (AR) with MMTV-Luc; or estrogen receptors (ERα and ERβ) with an ERE-Luc. The day after transfection with the luciferase reporter gene construct, cells were seeded in 12-well plates (50,000 cells per well). […] Luciferase activity was measured using the luciferase assay reagent (Promega), according to the manufacturer’s instructions. Protein concentrations were measured using the Bradford method to normalize luciferase activities. For each condition, luciferase activity was calculated from the data of three independent wells.
# primary AML cells = assay: Immunoblot densitometry in primary AML cells; assay type: cell-based, human; conditions: 5 µM DDA, 24 h
# Experimental: Immunoblotting was carried out as described previously. Proteins were separated on SDS-PAGE gels, electro-transferred onto polyvinylidene difluoride membranes and incubated overnight at 4 °C with the following antibodies: anti-Atg3, anti-Atg5 (D1G9), anti-Atg7 (D12B11), anti-Beclin (D40C5), anti-caspase-3 (Cell Signaling), anti-Bcl-2 (Millipore), anti-Bax (Millipore), anti-LC3 (Sigma-Aldrich), anti-LXRα (SantaCruz), anti-LXRβ (SantaCruz), anti-Nur77 (Active motif), anti-NOR1 (R&D systems), anti-PARP (Cell Signaling), anti-Vps34 (Cell Signaling), or anti-Actin (Millipore). For visualization, an ECL plus kit (Amersham Biosciences) was used, and chemiluminescence was measured by autoradiography (Supplementary Fig. 9). Specific bands were quantified with ImageQuant software.
# AML patient and normal bone marrow samples were obtained from patients in the Hematology Department of Toulouse (France), after obtaining consent in accordance with the Declaration of Helsinki[67], and according to institutional guidelines. Samples were stored at the INSERM-1037 HIMIP collection (no. DC-2008-307-CPTP1 HIMIP). For some experiments, fresh leukemic blasts recovered at diagnosis were immediately treated with DDA. In other cases, frozen cells were thawed in IMDM medium with 20% FBS. Patient characteristics are shown in supplementary data 1. Normal bone marrow cells were subjected to Ficoll-Paque density gradient separation to isolate mononuclear cells, followed by CD34+ cell separation using high-gradient magnetic-activated cell sorting, according to the manufacturer’s manual. The in vivo assays were performed with cryopreserved cells. […]
# All data or images are
# representative of 3 independent experiments.
smiles,measurement,setting,value
"CC(C)CCC[C@@H](C)[C@H]1CC[C@H]2[C@@H]3C[C@@H](NCCc4cnc[nH]4)[C@@]4(O)C[C@@H](O)CC[C@]4(C)[C@H]3CC[C@]12C [DDA, Dendrogenin A]","NOR1 protein, densitometry relative to untreated",HL60 cells,1.9
same,"Nur77 protein, densitometry relative to untreated",HL60 cells,1.8
same,IC50,[1],76 ± 12 nM
same,"LC3-II protein, densitometry relative to vehicle",primary AML cells; AML#4,3.4
same,"LXRβ protein, densitometry relative to vehicle",primary AML cells; AML#4,0.9
same,"NOR1 protein, densitometry relative to vehicle",primary AML cells; AML#4,2
same,"Nur77 protein, densitometry relative to vehicle",primary AML cells; AML#4,1.4
same,"LC3-II protein, densitometry relative to vehicle",primary AML cells; AML#5,3
same,"LXRβ protein, densitometry relative to vehicle",primary AML cells; AML#5,0.7
same,"NOR1 protein, densitometry relative to vehicle",primary AML cells; AML#5,2.2
same,"Nur77 protein, densitometry relative to vehicle",primary AML cells; AML#5,1.7
